For 9 molecules, GI50 and TGI results are on record in PubChem BioAssay (NCI).

Where “and” joins values, the source holds several entries; their conditions need not be identical. Equal values may be shown once.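 In this assay, cells in 96-well plates receive the compound at five concentrations for 48 hours. Endpoints are linearly interpolated between the surrounding concentrations. GI50 marks 50% less growth. TGI: concentration producing complete growth inhibition.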

What all share (experiment): NCI anticancer screen, dose series, 48 h
The test system of assay [1] is U251 CNS.
In assay [2] the test system is A549 NSCLC.
Assay [3] has as its system K-562 leukemia.
The test system of assay [4] is NCI-H522 lung.
The subject of assay [5] is NCI-H460 lung.
Assay [6] deals with SF-539 CNS.
The test system of assay [7] is KM12 colon.
Assay [8] has as its system NCI/ADR-RES ovarian.

For the molecule `Cc1cc(NCCCCNc2ccnc3cc(Cl)ccc23)nc(Nc2ccc(C(=O)N3CCCC3)cc2)n1`, the GI50 in assay [1] is 2.08 µM; in assay [2], 3.29 µM; in assay [3], 0.306 µM; in assay [4], 2.16 µM; in assay [5], 1.96 µM; in assay [6], 1.74 µM. Besides, the GI50 in assay [7] is 3 µM; in assay [8], 16.4 µM. For the same molecule, the TGI in assay [1] worked out at 4.8 µM; in assay [2], 10.7 µM; in assay [3], 2.33 µM; in assay [4] it was 4.87 µM; in assay [5], 4.98 µM; in assay [6], 3.54 µM. Also, the TGI in assay [7] is 11.3 µM; in assay [8], 72.8 µM.
Consider `C=C(C)[C@@H]1CC[C@]2(C(=O)O)CC[C@]3(C)[C@H](CC[C@@H]4[C@@]5(C)C[C@@H](CC#Cc6ccc(Br)cc6)C(=O)C(C)(C)[C@@H]5CC[C@]43C)[C@@H]12`, for which the GI50 is 2.12 µM in assay [1]; 2.8 µM in assay [2]; 15.6 µM in assay [3]; 2.95 µM in assay [4]; 5.71 µM in assay [5]; 22.5 µM in assay [6]. In addition, the GI50 was 4.54 µM in assay [7] and 62.6 µM in assay [8]. Also, the TGI in assay [1] is 6.72 µM; in assay [2] it was above 100 µM; in assay [3] it was above 100 µM; in assay [4] it was 75 µM; in assay [5], above 100 µM; in assay [6], above 100 µM. In addition, the TGI in assay [7] and in assay [8] was above 100 µM in each case.
Turning to `C/C1=C\CC[C@@]2(C)O[C@@H]2C[C@@H]2[C@H](C/C(C)=C/CC1)OC(=O)C21CCN=N1` (stereo not given in full), the GI50 in assay [1] is above 100 µM; in assay [2] it was above 100 µM; in assay [3], 71.2 µM; in assay [5] it was above 100 µM; in assay [6], above 100 µM; in assay [7], above 100 µM. The GI50 in assay [8] is above 100 µM. For the same molecule, the TGI in assay [1] is above 100 µM; in assay [2] it was 75 µM and > 100 µM; in assay [3] it was 42.7 µM and > 100 µM; in assay [4] it was 75 µM; in assay [5], 75 µM and > 100 µM; in assay [6], above 100 µM. For the same molecule, the TGI in assay [7] and in assay [8] was above 100 µM throughout.
As to `Cc1ccc(NSc2ccccc2[N+](=O)[O-])cc1`, the GI50 in assay [1] is 0.768 µM; in assay [2], 0.951 µM; in assay [3] it was 0.125 µM; in assay [4], 0.435 µM; in assay [5], 0.432 µM; in assay [6], 0.847 µM. Besides, the GI50 was 0.141 µM in assay [7] and 0.148 µM in assay [8]. In addition, the TGI worked out at 16.3 µM in assay [1]; 17.1 µM in assay [2]; 22.9 µM in assay [3]; 13.4 µM in assay [4]; 11.1 µM in assay [5]; 5.11 µM in assay [6]. Further, the values for the TGI in assay [7] and in assay [8] were 12.5 µM and 14.3 µM, respectively.
For the molecule `O=C(N/N=c1/ccoc2cccnc12)N1CCN(c2ncccn2)CC1`, the GI50 is 0.0777 µM in assay [1]; 0.324 µM in assay [2]; below 0.01 µM in assay [3]; 1.02 µM in assay [4]; 0.0896 µM in assay [5]; 1.39 µM in assay [6]. Also, the GI50 in assay [7] was 0.371 µM; in assay [8], below 0.0193 µM. For the same molecule, the TGI is 9.15 µM in assay [1]; 9.81 µM in assay [2]; 4.82 µM in assay [3]; 17.2 µM in assay [4]; 11.1 µM in assay [5]; 9.58 µM in assay [6]. For the same molecule, the TGI in assay [7] is 10.2 µM; in assay [8] it was 12.3 µM.
With `O=C(Nc1cccc([N+](=O)[O-])c1)c1ccc2ccccc2c1O`, the GI50 in assay [1] was 4.36 µM; in assay [2] it was 6.87 µM; in assay [3], 2.79 µM; in assay [4], 1.89 µM; in assay [5] it was 3.69 µM; in assay [6], 4.63 µM. Also, the GI50 is 4.41 µM in assay [7] and 5.62 µM in assay [8]. The TGI was above 86.8 µM in assay [1]; above 100 µM in assay [2]; above 100 µM in assay [3]; 6.96 µM in assay [4]; above 100 µM in assay [5]; above 64.8 µM in assay [6]. Besides, the TGI in assay [7] is above 81.2 µM; in assay [8], above 86.5 µM.
Take `N#CCC12CC=CCC1=C(O)C(=O)c1ccc(O)cc12` (stereo not given): the TGI in assay [1], in assay [2], in assay [3], in assay [4], in assay [5] and in assay [6] was above 100 µM throughout. The TGI in assay [7] and in assay [8] was above 100 µM throughout.
Regarding `CC(C)(C)c1cn2cccc(C(=O)N3CCN(CC(=O)Nc4ccc(Cl)cc4C(=O)c4ccccc4Cl)CC3)c2n1`, the GI50 in assay [1] is 7.68 µM; in assay [2] it was 2.64 µM; in assay [3], above 100 µM; in assay [4], 12.7 µM; in assay [5], 5.79 µM; in assay [6], 10 µM. Also, the results for the GI50 in assay [7] and in assay [8] were 5.68 µM and 6.7 µM, respectively. Also, the TGI in assay [1] was 25.5 µM; in assay [2], 23.3 µM; in assay [3], above 100 µM; in assay [4] it was 52.3 µM; in assay [5], 23 µM; in assay [6], 22.3 µM. Besides, the TGI in assay [7] was 22.4 µM; in assay [8] it was above 100 µM.
Regarding `Cn1ccnc1C(=O)/C=C/c1ccc(C(=O)Nc2ccccc2O)cc1`, the GI50 in assay [1] was 1.46 µM; in assay [2], 3.03 µM; in assay [3], 0.939 µM; in assay [4] it was 1.86 µM; in assay [5], 1.67 µM; in assay [6], 1.56 µM. Besides, the GI50 in assay [7] was 1.96 µM; in assay [8], 2.86 µM. Moreover, the TGI in assay [1] turned out to be 4.03 µM; in assay [2], 13.6 µM; in assay [3], 34 µM; in assay [4], 5.47 µM; in assay [5] it was 5.6 µM; in assay [6], 3.5 µM. Besides, the values for the TGI in assay [7] and in assay [8] were 4.44 µM and 22.6 µM, respectively.
